Measurements as given in patent publication US20190343908A1, “Therapeutic Combination for the Treatment of Cancer” (Nerium Biotechnology Inc., priority 2011, published 2019).

Key:
[1] = system: PANC-1 pancreatic cancer cell line; experiment: Crystal Violet viability assay, PANC-1; format: cell-based, human; settings: for ABSORBANCE: 0.1 μg/mL cisplatin; for CVE 24 h / CVE 48 h / CVE 72 h: Run 1 average
From the text: (§1) Three different viability assays were chosen to complement each other and yielded results dependent on concentration and cell line: the Methyl Tetrazolium dye assay, the Sulforhodamine B fluorescent dye assay, and the Crystal Violet dye assay.
The Sulforhodamine B and Crystal Violet assays provide information about protein and were used to complement the Methyl-Tetrazolium dye assay. […] It is used for the quantification of cellular proteins of cultured cells. The assay using Crystal Violet, a dye that binds electrostatically to proteins and stains DNA, provides a reliable, simple assay for measuring viability of cells.
(§2) The Methyl Tetrazolium, Sulforhodamine B, and Crystal Violet assays were used to assess cell viabilities. The incubation times were 24 hours, 48 hours, and 72 hours. The Nerium oleander extract Anvirzel™ (a hot water extract of oleander obtained from Salud Integral, Honduras) was tested in concentrations ranging from 0.01 ng/mL to 10 ng/mL.
(§3) Cells were detached by trypsinization (Trypsin-0.25% EDTA, Invitrogen, 25200-072) during the logarithmic phase of culture growth and plated in 96-well plates (18.000 cells/well) (Corning, Costar 359) in a final volume of 200 μl of medium per well. […] The absorbance was measured after 24 hours, 48 hours, and 72 hours of incubation.
For the Crystal Violet assay, the medium was removed from the 96-well plates, the plates rinsed with PBS (Sigma, P3813) and then the cells were […] by the addition of 10% formalin (MERCK, 1.04003.2500) for 20 minutes at RT. Formalin was removed and 0.25% aqueous crystal violet (Sigma, HT901), dissolved in water, was added for 10 minutes at RT. Unbound Crystal Violet was rinsed by washing with water and finally 33% acetic acid was added to dissolve the dye.
(§4) The optical density of each plate was measured on a μQuant spectrophotometer and the data were analyzed with Gen5 software (μQuant Biomolecular Spectrophotometer MQX200 and Gen5™ Microplate Data Collection & Analysis software, BioTek® Instruments. Inc, April 2008). Absorbance was measured at 570 nm for all assays and a second wavelength was measured in order to subtract noise. For the Methyl-Tetrazolium assay this second wavelength was 630 nm and for the Sulforhodamine B and Crystal Violet assays it was 690 nm.

[2] = system: MCF-7 (human breast cancer); experiment: Methyl-Tetrazolium viability assay, MCF-7; format: cell-based; parameters: key: absorbance (optical density) at 570 nm, second wavelength subtracted
From the text: as §1
The Methyl-Tetrazolium dye assay measures the activity of enzymes in mitochondria. The dye precursor is taken up by cells, where it undergoes reduction to the purple formazan. It measures only the mitochondrial activity and, thus, it is not always a reliable indication of whether the cells themselves are alive or dead, since even a recently dead cell has […] enzyme activity in mitochondria. Intracellular glucose concentration, pH, and time before assay all affect the measurements.
as §2, §3
For the Methyl-Tetrazolium assay, the dye (Sigma, M2128; 5 mg/mL, diluted in phosphate-buffered saline) was added to each well and plates were incubated for 3 hours at 37° C. After the end of the incubation period, the medium was discarded and the cells were rinsed with phosphate-buffered saline. Finally, the formazan crystals were dissolved in dimethylsulphoxide (Sigma, D4540).
as §4

## N.N.[Cl][Pt][Cl] [cisplatin]
[1]; PANC-1, 48 h
  ABSORBANCE: 0.753
[1]; PANC-1, 72 h
  ABSORBANCE: 0.872
[1]; PANC-1, Run 2, 24 h, 0.1 μg/ml CDDP
  Average CVE: 0.793
[1]; PANC-1, Run 2, 24 h, 1 μg/ml CDDP
  Average CVE: 0.456
[1]; PANC-1, Run 2, 24 h, 10 μg/ml CDDP
  Average CVE: 0.602
[1]; PANC-1, Run 2, 24 h, 100 μg/ml CDDP
  Average CVE: 0.345
[1]; PANC-1, Run 2, 48 h, 0.1 μg/ml CDDP
  Average CVE: 0.575
[1]; PANC-1, Run 2, 48 h, 1 μg/ml CDDP
  Average CVE: 0.249
[1]; PANC-1, Run 2, 48 h, 10 μg/ml CDDP
  Average CVE: 0.33
[1]; PANC-1, Run 2, 48 h, 100 μg/ml CDDP
  Average CVE: 0.323
[1]; PANC-1, Run 2, 72 h, 0.1 μg/ml CDDP
  Average CVE: 0.839
[1]; PANC-1, Run 2, 72 h, 1 μg/ml CDDP
  Average CVE: 0.514
[1]; PANC-1, Run 2, 72 h, 10 μg/ml CDDP
  Average CVE: 0.49
[1]; PANC-1, Run 2, 72 h, 100 μg/ml CDDP
  Average CVE: 0.385
[1]; PANC-1, Run 3, 24 h, 0.1 μg/ml CDDP
  Average CVE: 0.476
[1]; PANC-1, Run 3, 24 h, 1 μg/ml CDDP
  Average CVE: 0.457
[1]; PANC-1, Run 3, 24 h, 10 μg/ml CDDP
  Average CVE: 0.698
[1]; PANC-1, Run 3, 24 h, 100 μg/ml CDDP
  Average CVE: 0.428
[1]; PANC-1, Run 3, 48 h, 0.1 μg/ml CDDP
  Average CVE: 0.753
[1]; PANC-1, Run 3, 48 h, 1 μg/ml CDDP
  Average CVE: 0.395
[1]; PANC-1, Run 3, 48 h, 10 μg/ml CDDP
  Average CVE: 0.218
[1]; PANC-1, Run 3, 48 h, 100 μg/ml CDDP
  Average CVE: 0.18
[1]; PANC-1, Run 3, 72 h, 0.1 μg/ml CDDP
  Average CVE: 0.872
[1]; PANC-1, Run 3, 72 h, 1 μg/ml CDDP
  Average CVE: 0.358
[1]; PANC-1, Run 3, 72 h, 10 μg/ml CDDP
  Average CVE: 0.421
[1]; PANC-1, Run 3, 72 h, 100 μg/ml CDDP
  Average CVE: 0.253
[1]; 0.1 μg/ml CDDP
  CVE 24 h: 0.324
  CVE 48 h: 0.717
  CVE 72 h: 0.676
[1]; 1 μg/ml CDDP
  CVE 24 h: 0.125
  CVE 48 h: 0.429
  CVE 72 h: 0.262
[1]; 10 μg/ml CDDP
  CVE 24 h: 0.191
  CVE 48 h: 0.466
  CVE 72 h: 0.337
[1]; 100 μg/ml CDDP
  CVE 24 h: 0.153
  CVE 48 h: 0.381
  CVE 72 h: 0.28
[2]; MCF-7, Run 2, 24 h, 0.1 μg/ml CDDP
  MTT Average: 0.263
[2]; MCF-7, Run 2, 24 h, 1 μg/ml CDDP
  MTT Average: 0.027
[2]; MCF-7, Run 2, 24 h, 10 μg/ml CDDP
  MTT Average: 0.124
[2]; MCF-7, Run 2, 24 h, 100 μg/ml CDDP
  MTT Average: 0.029
[2]; MCF-7, Run 2, 48 h, 0.1 μg/ml CDDP
  MTT Average: 0.37
[2]; MCF-7, Run 2, 48 h, 1 μg/ml CDDP
  MTT Average: 0.025
[2]; MCF-7, Run 2, 48 h, 10 μg/ml CDDP
  MTT Average: 0.045
[2]; MCF-7, Run 2, 48 h, 100 μg/ml CDDP
  MTT Average: 0.029
[2]; MCF-7, Run 2, 72 h, 0.1 μg/ml CDDP
  MTT Average: 0.39
[2]; MCF-7, Run 2, 72 h, 1 μg/ml CDDP
  MTT Average: 0.038
[2]; MCF-7, Run 2, 72 h, 10 μg/ml CDDP
  MTT Average: 0.028
[2]; MCF-7, Run 2, 72 h, 100 μg/ml CDDP
  MTT Average: 0.013
[2]; MCF-7, Run 3, 24 h, 0.1 μg/ml CDDP
  MTT Average: 0.516
[2]; MCF-7, Run 3, 24 h, 1 μg/ml CDDP
  MTT Average: 0.039
[2]; MCF-7, Run 3, 24 h, 10 μg/ml CDDP
  MTT Average: 0.135
[2]; MCF-7, Run 3, 24 h, 100 μg/ml CDDP
  MTT Average: 0.026
[2]; MCF-7, Run 3, 48 h, 0.1 μg/ml CDDP
  MTT Average: 0.525
[2]; MCF-7, Run 3, 48 h, 1 μg/ml CDDP
  MTT Average: 0.041
[2]; MCF-7, Run 3, 48 h, 10 μg/ml CDDP
  MTT Average: 0.03
[2]; MCF-7, Run 3, 48 h, 100 μg/ml CDDP
  MTT Average: 0.032
[2]; MCF-7, Run 3, 72 h, 0.1 μg/ml CDDP
  MTT Average: 0.546
[2]; MCF-7, Run 3, 72 h, 1 μg/ml CDDP
  MTT Average: 0.035
[2]; MCF-7, Run 3, 72 h, 10 μg/ml CDDP
  MTT Average: 0.032
[2]; MCF-7, Run 3, 72 h, 100 μg/ml CDDP
  MTT Average: 0.018
[2]; MCF-7 Run 1, 24 h, 0.1 μg/ml CDDP
  MTT Average: 0.574
[2]; MCF-7 Run 1, 24 h, 1 μg/ml CDDP
  MTT Average: 0.066
[2]; MCF-7 Run 1, 24 h, 10 μg/ml CDDP
  MTT Average: 0.194
[2]; MCF-7 Run 1, 24 h, 100 μg/ml CDDP
  MTT Average: 0.034
[2]; MCF-7 Run 1, 48 h, 0.1 μg/ml CDDP
  MTT Average: 0.719
[2]; MCF-7 Run 1, 48 h, 1 μg/ml CDDP
  MTT Average: 0.051
[2]; MCF-7 Run 1, 48 h, 10 μg/ml CDDP
  MTT Average: 0.069
[2]; MCF-7 Run 1, 48 h, 100 μg/ml CDDP
  MTT Average: 0.025
[2]; MCF-7 Run 1, 72 h, 0.1 μg/ml CDDP
  MTT Average: 0.788
[2]; MCF-7 Run 1, 72 h, 1 μg/ml CDDP
  MTT Average: 0.048
[2]; MCF-7 Run 1, 72 h, 10 μg/ml CDDP
  MTT Average: 0.047
[2]; MCF-7 Run 1, 72 h, 100 μg/ml CDDP
  MTT Average: 0.023
